{"source": "patent US20110250133A1", "about": "“GASTRIN […] PEPTIDE COMPOUNDS” (priority 2003, published 2011)", "key": {"[1]": {"tested_on": "PC-3 prostate cancer cells", "assay": "Effect of drug treatment on GRP receptor binding (177Lu-AMBA) in PC-3 cells", "type": "cell-based, human", "conditions": "for decrease in 177Lu-AMBA binding (GRP receptor specific signal per cell): drug 0.1-1.0 μM (gefitinib 0.1-10 μM)", "quoted_text": "(§1) RPMI 1640 supplemented with 20 mM HEPES, 0.1% BSA (w/v), 0.5 mM PMSF (AEBSF), bacitracin (50 mg/500 ml), pH 7.4.\n(§2) Incubations were stopped by the addition of 200 μL of ice-cold binding buffer. Plates were washed three more times with binding buffer, 140 μL of scintillation fluid was added to each well, the plates were sealed and analyzed on a Microβ plate reader (Microbeta Trilux, Perkin-Elmer).\nPC-3 (human prostate adenocarcinoma, bone metastasis, AR-, ER) were obtained from the American Type Culture Collection. The growth medium for PC-3 cells is RPMI 1640 (10-041-CM, Mediatech, Inc), supplemented with 10% heat inactivated FBS (Hyclone, SH30070.03) and PSF-1× (as in Example LXVI). The binding buffer, lapatinib solutions, treatment method and cell binding assay is the same as in Example LXVI."}, "[2]": {"tested_on": "BT-474 human breast cancer cells", "assay": "Effect of drug treatment on GRP receptor binding (177Lu-AMBA) in BT-474 cells", "type": "cell-based", "conditions": "for change in GRP receptor specific signal per cell (177Lu-AMBA binding) / decrease in 177Lu-AMBA binding (GRP receptor specific signal per cell): BT-474; for change in GRP receptor specific signal per cell (177Lu-AMBA binding): drug 0.1-1.0 μM (gefitinib 0.1-10 μM); for change in 177Lu-AMBA uptake (GRP-R) on a viable cell basis, BT-474: ↑ increase, ↓ decrease vs untreated; for decrease in 177Lu-AMBA binding (GRP receptor specific signal per cell): relative to untreated control, drug 0.1-1.0 μM (4-OH Tamoxifen 0.001-0.1 μM)", "quoted_text": "BT-474 breast cancer cells (human primary invasive ductal carcinoma; ER+, PR+, amplified HER2/neu+) were obtained from the American Type Culture Collection. The growth medium for BT-474 cells is Hybri-care Medium (Cat No: 46X, ATCC) supplemented with 10% heat inactivated FBS (Hyclone, SH30070.03), 0.2% NaHCO3, and antibiotic/antimycotic “PSF-1×” (GibcoBRL, 15240-062) for a final concentration of penicillin-streptomycin (1×, 100 units/mL), and fungizone (0.25 μg/mL). […] Cells for binding experiments were plated on Day 0 at 5.6×10^4 cells/cm^2 in 96-well white/clear bottom microtiter plates (Falcon Optilux-I), or 96 well black/clear collagen I cellware plates (Beckton Dickinson Biocoat).\nas §1, §2\nTreatment: BT-474 cells were plated on Day 0 and treated on Days 1 and 2 (DT1, DT2)."}, "[3]": {"tested_on": "T47D human breast cancer cells", "assay": "Effect of drug treatment on GRP receptor binding (177Lu-AMBA) in T47D cells", "type": "cell-based", "conditions": "for increase in 177Lu-AMBA binding (GRP receptor specific signal per cell) / decrease in 177Lu-AMBA binding (GRP receptor specific signal per cell): T-47D, relative to untreated control; for increase in 177Lu-AMBA binding (GRP receptor specific signal per cell): drug 0.1-1.0 μM (gefitinib 0.1-10 μM); for decrease in 177Lu-AMBA binding (GRP receptor specific signal per cell): drug 0.1-1.0 μM (4-OH Tamoxifen 0.001-0.1 μM)", "description": "T-47D breast cancer cells (human metastatic mammary gland ductal adenocarcinoma isolated from pleural effusion, ER+, PR+) were obtained from the American Type Culture Collection."}, "[4]": {"biological_target": "T1, NMB-R (Rattus norvegicus, UniProt P24053)", "T1 construct": "C6, an NMB-R expressing rodent glioblastoma cell line; host or cells: C6 glioblastoma cells, intact adherent cells", "T1 sequence (P24053 1-390)": "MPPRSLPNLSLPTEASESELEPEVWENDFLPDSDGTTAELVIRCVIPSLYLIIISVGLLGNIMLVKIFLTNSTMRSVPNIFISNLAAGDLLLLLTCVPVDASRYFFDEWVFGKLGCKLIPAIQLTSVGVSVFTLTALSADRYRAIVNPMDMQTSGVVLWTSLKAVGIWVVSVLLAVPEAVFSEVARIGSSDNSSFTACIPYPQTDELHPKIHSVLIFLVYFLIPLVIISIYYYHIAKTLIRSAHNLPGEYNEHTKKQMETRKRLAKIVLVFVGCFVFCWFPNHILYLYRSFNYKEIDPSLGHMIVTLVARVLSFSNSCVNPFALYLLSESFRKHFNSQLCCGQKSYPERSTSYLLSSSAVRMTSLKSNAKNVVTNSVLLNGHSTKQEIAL", "assay": "Competition with 125I-NMB for NMB-R in C6 cells (linker specificity);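 for all read-outs here: test cells: rodent glioblastoma C6 line carrying NMB-R, human prostate cancer PC3 line carrying GRP-R, affinity fitted by one-site competition nonlinear regression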", "type": "binding, rodent", "conditions": "for receptor subtype preference (GRP-R vs NMB-R): from IC50 with 125I-NMB (C6) and 125I-BBN (PC3), cut off 10x the IC50 of [Tyr4]-BBN; for GRP-R (GRP-R preferring): yes / —, cut off 10x the IC50 of [Tyr4]-BBN with 125I-NMB on C6 cells", "quoted_text": "Two cell lines, C6, an NMB-R expressing rodent glioblastoma cell line and PC3, a GRP-R expressing human prostate cancer cell line, were used in this assay. The affinity of various unlabeled compounds for each receptor subtype (NMB-R and GRP-R) was determined indirectly by measuring its ability to compete with the binding of ^125I-NMB or ^125I-BBN to its corresponding receptors in C6 and PC3 cells.\nCells for the assays were plated at a concentration of 9.6×10^4/well in 48 well poly-lysine coated plates (Beckton Dickinson Biocoat). PC3 were obtained from ATCC(CRL-1435) and cultured in RPMI 1640 (ATCC) supplemented with 2 mM L-glutamine, 1.5 g/L Sodium bicarbonate, 10 mM HEPES and 10% FBS. […] PC3 cells for the assays were plated at a concentration of 2.0×10^4 cells/well in 96-well white/clear bottom plates (Falcon Optilux-I). Plates were used for the assays on day 2 of the post-plating.\nRPMI 1640 (ATCC) containing 25 mM HEPES, 0.2% BSA fraction V, 1.0 mM AEBSF (CAS # 3087-99-7) and 0.1% Bacitracin (CAS # 1405-87-4), pH 7.4. Custom made ^125I-[Tyr^0]NMB, >2.0 Ci/μmole (Amersham Life Science) [^125I-NMB] and commercially available ^125I-[Tyr^4]BBN, >2.0 Ci/μmole (Perkin Elmer Life Science) [^125I-BBN] were used as radioligands.\nUsing a 48-well plate assay system (for C6 study) competition experiments were performed using ^125I-NMB. […] Selection of compounds for the assay was based on linker subtype.\nThe binding parameters obtained from the studies were analyzed using a one-site competition non-linear regression analysis with GraphPad Prism. The relative affinity of various compounds for NMB-R in C6 cells were compared with those obtained using commercially available [Tyr^4]-BBN and [Tyr^0]-NMB. To distinguish the GRP-R preferring compounds from NMB-R plus GRP-R preferring compounds, IC50 values obtained for each compound were compared with those obtained from [Tyr^4-BBN with ^125I-NMB on C6 cells."}, "[5]": {"tested_on": "PC-3 prostate cancer cells", "assay": "Effect of dasatinib on GRP receptor binding, proliferation and glucose uptake in PC-3 cells (single plate assay)", "type": "cell-based, human", "conditions": "for % Change in 2-NBDG uptake / % change in 177Lu-AMBA uptake / % Change in Proliferation / 177Lu-AMBA uptake (Bmax fmoles/million cells): PC3 cells; for % Change in Proliferation: N = 4; for 177Lu-AMBA uptake (Bmax fmoles/million cells): control 266 (±23)", "procedure": "The cells were plated on Day 0 (7.5 k/well 96-well PE Scintiplate). […] To determine the cell numbers and the proliferation, 100 uL of 10% CCK—F solution in DPBS (Molecular technologies) was added to the same plate, incubated for 30 min at 37° C. and the relative fluorescence (RFU) measured at 535 nm. Base on the cell numbers and the ^177Lu-binding, the Bmax (fmoles bound/million cells) was calculated, and the results compared with the control.\nFor the glucose uptake study, a fluorescently labeled 2-deoxyglucose derivative (2-NBDG) was used. After the dasatinib treatment as described above, the cells were incubated with 2-NBDG (200 uM) in binding buffer for 2 h at 37° C. and measured RFU at 530 nm. The cell numbers were determined using CCK—F as described above. Based on the cell numbers Bmax for glucose uptake was determined and compared with the control."}, "[6]": {"biological_target": "T2, GRP-R (Homo sapiens, UniProt P30550)", "T2 construct": "host or cells: PC3 (PC-3) human prostate cancer cells, intact adherent cells", "assay": "Competition studies of modified BBN analogs with 125I-BBN for GRP-R in PC3 cells (Example LXI)", "type": "binding", "quoted_text": "PC3 cell lines were obtained from ATCC(CRL-1435) and cultured in RPMI 1640 (ATCC) supplemented with 2 mM L-glutamine, 1.5 g/L Sodium bicarbonate, 10 mM HEPES and 10% FBS. […] PC3 cells for the assays were plated at a concentration of 2.0×10^4 cells/well in a 96-well white/clear bottom plates (Falcon Optilux-I). Plates were used for the assays on day 2 of the post-plating.\n^125I-BBN (Cat # NEX258) was obtained from PerkinElmer Life Sciences.\nAll compounds tested were dissolved in binding buffer and appropriate dilutions were also done in binding buffer. PC3 cells for assay were seeded at a concentration of 2.0×10^4/well either in 96-well black/clear collagen I cellware plates (Beckton Dickinson Biocoat). Plates were used for binding studies on day 2 post-plating. The plates were checked for confluency (>90% confluent) prior to assay. […] The studies were conducted with an assay volume of 75 μL per well. Triplicate wells were used for each data point. After the addition of the appropriate solutions, plates were incubated for 1 hour at 4° C. Incubation was ended by the addition of 200 μL of ice-cold incubation buffer. Plates were washed 5 times and blotted dry. Radioactivity was detected using either a LKB CompuGamma counter or a microplate scintillation counter."}, "[7]": {"tested_on": "PC3 cells", "assay": "Internalization and efflux assay in PC3 cells", "type": "cell-based, human", "conditions": "125I-BBN or Lu-177 complexes", "quoted_text": "These studies were conducted in a 96-well plate. […] Incubations were stopped by the addition of 200 μl of ice-cold binding buffer. Plates were washed twice with binding buffer. To remove surface-bound radioligand, the cells were incubated with 0.2M acetic acid (in saline), pH 2.8 for 2 min. Plates were centrifuged and the acid wash media were collected to determine the amount of radioactivity which was not internalized. The cells were collected to determine the amount of internalized ^125I-BBN, and all samples were analyzed in the gamma counter. Data for the internalization assay was normalized by comparing counts obtained at the various time points with the counts obtained at the final time point (T=40 min).\nFor the efflux studies, after loading the PC3 cells with ^125I-BBN or radiolabeled compounds of the invention for 40 min at 37° C., the unbound material was filtered, and the % of internalization was determined as above. The cells were then resuspended in binding buffer at 37° C. for up to 3 h."}, "[8]": {"conditions": "PC-3, relative to untreated control"}}, "note": "“Also recorded” adds a separate entry of the source.", "data": [{"compound": "CC/C(=C(\\c1ccc(O)cc1)c1ccc(OCCN(C)C)cc1)c1ccccc1", "note": "[Compounds 4-OH-Tamoxifen]", "values": [{"measurement": "change in 177Lu-AMBA binding (GRP receptor specific signal per cell) vs untreated controls, PC-3", "setting": "[1]; Table 25, range 0.001-0.1 μM", "result": 0, "unit": "%"}, {"measurement": "change in 177Lu-AMBA binding (GRP receptor specific signal per cell) vs untreated controls, BT-474", "setting": "[2]; Table 25, range 0.001-0.1 μM", "result": "−73", "unit": "%"}, {"measurement": "change in 177Lu-AMBA binding (GRP receptor specific signal per cell) vs untreated controls, T47D", "setting": "[3]; Table 25, range 0.001-0.1 μM", "result": "−35", "unit": "%"}]}, {"compound": "N-[(3β,5β,12α)-3-[[[4,7,10-Tris(carboxymethyl)-1,4,7,10-tetraazacyclododec-1-yl]acetyl]amino]-glycyl-4-aminobenzoyl-L-leucyl-L-tryptophyl-L-alanyl-L-threonyll-glycyl-L-histidyl-L-phenylalanyl-L-methioninamide [Compound L227]", "values": [{"measurement": "receptor subtype preference (GRP-R vs NMB-R)", "setting": "[4]", "result": "affinity to GRP-R in addition to its inherent NMB-R affinity"}]}, {"compound": "N-[(3β,5β,12α)-3-[[[4,7,10-Tris(carboxymethyl)-1,4,7,10-tetraazacyclododec-1-yl]acetyl]amino]-4-aminobenzoyl-glycyl-L-glutaminyl-L-tryptophyl-L-alanyl-L-valyl-glycyl-L-histidyl-L-leucyl-L-methioninamide [Compound L204]", "values": [{"measurement": "receptor subtype preference (GRP-R vs NMB-R)", "setting": "[4]", "result": "selective affinity to NMB-R; also recorded: favor the NMB subtype"}, {"measurement": "receptor preference in words (GRP-R / GRP-R and NMB-R)", "setting": "[4]; wrapped cell: 'No selective preference' or 'preference for NMB-R'", "result": "preference for NMB-R"}]}, {"compound": "gefitinib", "values": [{"measurement": "decrease in 177Lu-AMBA binding (GRP receptor specific signal per cell)", "setting": "[1]; [8]", "result": "20-40%"}, {"measurement": "change in GRP receptor specific signal per cell (177Lu-AMBA binding)", "setting": "[2]", "result": "no change"}, {"measurement": "change in 177Lu-AMBA uptake (GRP-R) on a viable cell basis, BT-474", "setting": "[2]; drug 0.1-10 μM", "result": "NC (NC: Little(<10%) or no change in Lu-AMBA uptake)"}, {"measurement": "increase in 177Lu-AMBA binding (GRP receptor specific signal per cell)", "setting": "[3]", "result": "up to 20%"}]}, {"compound": "dasatinib", "values": [{"measurement": "increase in 177Lu-AMBA binding (GRP receptor specific signal per cell)", "setting": "[1]; PC-3, relative to untreated control, drug 0.1-1.0 μM", "result": "up to 250%"}, {"measurement": "% Change in 2-NBDG uptake", "setting": "[5]; Dasatinib 1 nM", "result": "−4.3 (±4.6) %"}, {"measurement": "% change in 177Lu-AMBA uptake", "setting": "[5]; Dasatinib 1 nM", "result": "12.3 (±5.8) %"}, {"measurement": "% Change in Proliferation", "setting": "[5]; Dasatinib 1 nM", "result": "−4.3 (±1.0) %"}, {"measurement": "177Lu-AMBA uptake (Bmax fmoles/million cells)", "setting": "[5]; Dasatinib 1 nM", "result": "300 (±40) fmoles/million cells"}, {"measurement": "% Change in 2-NBDG uptake", "setting": "[5]; Dasatinib 10 nM", "result": "−62.9 (±7.1) %"}, {"measurement": "% change in 177Lu-AMBA uptake", "setting": "[5]; Dasatinib 10 nM", "result": "45.4 (±8.1) %"}, {"measurement": "% Change in Proliferation", "setting": "[5]; Dasatinib 10 nM", "result": "−11.2 (±5.9) %"}, {"measurement": "177Lu-AMBA uptake (Bmax fmoles/million cells)", "setting": "[5]; Dasatinib 10 nM", "result": "387 (±46) fmoles/million cells"}, {"measurement": "% Change in 2-NBDG uptake", "setting": "[5]; Dasatinib 100 nM", "result": "−67.8 (±15.8) %"}, {"measurement": "% change in 177Lu-AMBA uptake", "setting": "[5]; Dasatinib 100 nM", "result": "76.7 (±5.0) %"}, {"measurement": "% Change in Proliferation", "setting": "[5]; Dasatinib 100 nM", "result": "−33.3 (±11.4) %"}, {"measurement": "177Lu-AMBA uptake (Bmax fmoles/million cells)", "setting": "[5]; Dasatinib 100 nM", "result": "470 (±51) fmoles/million cells"}, {"measurement": "177Lu-AMBA uptake, average Bmax", "setting": "[5]; PC-3, 100 nM", "result": "≤ 470", "unit": "fmoles/million cells"}, {"measurement": "decrease of glucose uptake (2-NBDG)", "setting": "[5]; PC-3, 100 nM", "result": "≤ 67.8", "unit": "%"}, {"measurement": "inhibition of growth (cell proliferation)", "setting": "[5]; PC-3, 100 nM", "result": "≤ 33", "unit": "%"}, {"measurement": "decrease in 177Lu-AMBA binding (GRP receptor specific signal per cell)", "setting": "[2]", "result": "10-15%"}, {"measurement": "increase in 177Lu-AMBA binding (GRP receptor specific signal per cell)", "setting": "[3]", "result": "up to 500%"}]}, {"compound": "bortezomib", "values": [{"measurement": "decrease in 177Lu-AMBA binding (GRP receptor specific signal per cell)", "setting": "[1]; [8]", "result": "up to 60%"}, {"measurement": "decrease in 177Lu-AMBA binding (GRP receptor specific signal per cell)", "setting": "[2]", "result": "up to 50%"}, {"measurement": "decrease in 177Lu-AMBA binding (GRP receptor specific signal per cell)", "setting": "[3]", "result": "up to 50%"}]}, {"compound": "DO3A-monoamide-Cha-Cha-QWAVGHLM-NH2", "values": [{"measurement": "receptor subtype preference (GRP-R vs NMB-R)", "setting": "[4]", "result": "selective affinity towards GRP-R"}, {"measurement": "GRP-R (GRP-R preferring)", "setting": "[4]", "result": "yes"}]}, {"compound": "DO3A-monoamide-Nal1-Bip-QWAVGHLM-NH2", "values": [{"measurement": "receptor subtype preference (GRP-R vs NMB-R)", "setting": "[4]", "result": "selective affinity towards GRP-R"}, {"measurement": "GRP-R (GRP-R preferring)", "setting": "[4]", "result": "yes"}]}, {"compound": "N-[4-[[[[4,7,10-Tris(carboxymethyl)-1,4,7,10-tetraazacyclododec-1-yl]acetyl]glycyl]amino]-3-methoxybenzoyl]-L-glutaminyl-L-tryptophyl-1-alanyl-L-valyl-glycyl-L-histidyl-L-leucyl-L-methioninamide [Compound L240]", "values": [{"measurement": "receptor subtype preference (GRP-R vs NMB-R)", "setting": "[4]", "result": "selective affinity to GRP-R"}]}, {"compound": "anastrozole", "values": [{"measurement": "decrease in 177Lu-AMBA binding (GRP receptor specific signal per cell)", "setting": "[1]; [8]", "result": "up to 10%"}, {"measurement": "change in GRP receptor specific signal per cell (177Lu-AMBA binding)", "setting": "[2]", "result": "no change"}, {"measurement": "change in 177Lu-AMBA uptake (GRP-R) on a viable cell basis, BT-474", "setting": "[2]; drug 0.1-1.0 μM", "result": "NC (NC: Little(<10%) or no change in Lu-AMBA uptake)"}, {"measurement": "decrease in 177Lu-AMBA binding (GRP receptor specific signal per cell)", "setting": "[3]", "result": "up to 10%"}]}, {"compound": "DO3A-Gly-Abz4-Gln-Trp-Ala-Val-Gly-His-Phe-Leu-NH2 [Compound L300]", "values": [{"measurement": "competition at the GRP-R", "setting": "[6]", "result": "high activity at the GRP-R"}]}, {"compound": "DO3A-monoamide-Aoc-QWAVGHLM-NH2", "values": [{"measurement": "Internalisation (40 minutes)", "setting": "[7]; 40 min at 37° C.", "result": 89, "unit": "%"}, {"measurement": "Efflux (2 h)", "setting": "[7]; 2 h at 37° C. after 40 min loading", "result": 28, "unit": "%"}]}]}
